Experimental data as given in PubChem BioAssay AID248 (DTP/NCI, 2004).
Values joined by “and” are separate entries in the source; they are usually repeats but may differ in a detail not shown here. Equal entries are not always repeated. Inconclusive results and toxic doses are left out. Cut-off read from the data, not from the text of the source: active = T/C of 150% or more; inactive = T/C below 125%.

System: L1210 leukemia ip in BDF1 mice, survival T/C
Experiment: NCI In Vivo Anticancer Drug Screen. Data for tumor model L1210 Leukemia (intraperitoneal) in B6D2F1 (BDF1) mice
Conditions: endpoint: mean survival time, higher = longer survival
How it was run: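 Value reflects the ratio of survival in compound-treated mice to survival in vehicle-treated controls, with both groups carrying the same transplanted tumor.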

[1] = dose: 50.0 mg/kg/injection, schedule: Q01DX009 (ip), vehicle: saline with Tween-80
[2] = dose: 100.0 mg/kg/injection, schedule: Q01DX009 (ip), vehicle: saline with Tween-80
[3] = dose: 100.0 mg/kg/injection, schedule: Q04DX003 (ip), vehicle: saline with Tween-80
[4] = dose: 200.0 mg/kg/injection, schedule: Q04DX003 (ip), vehicle: saline with Tween-80
[5] = dose: 100.0 mg/kg/injection, schedule: Q01DX009 (ip), vehicle: saline
[6] = dose: 100.0 mg/kg/injection, schedule: Q04DX003 (ip), vehicle: saline
[7] = dose: 200.0 mg/kg/injection, schedule: Q01DX009 (ip), vehicle: saline
[8] = dose: 200.0 mg/kg/injection, schedule: Q04DX003 (ip), vehicle: saline
[9] = dose: 400.0 mg/kg/injection, schedule: Q01DX009 (ip), vehicle: saline
[10] = dose: 400.0 mg/kg/injection, schedule: Q04DX003 (ip), vehicle: saline
[11] = dose: 100.0 mg/kg/injection, schedule: Q01DX009 (ip), vehicle: Klucel (hydroxypropylcellulose) (HPC)
[12] = dose: 75.0 mg/kg/injection, schedule: Q01DX001 (ip), vehicle: saline
[13] = dose: 150.0 mg/kg/injection, schedule: Q01DX001 (ip), vehicle: saline
[14] = dose: 100.0 mg/kg/injection, schedule: Q01DX001 (ip), vehicle: carboxymethylcellulose (CMC)
[15] = dose: 200.0 mg/kg/injection, schedule: Q01DX001 (ip), vehicle: carboxymethylcellulose (CMC)
[16] = dose: 400.0 mg/kg/injection, schedule: Q01DX001 (ip), vehicle: carboxymethylcellulose (CMC)
[17] = dose: 200.0 mg/kg/injection, schedule: Q01DX009 (ip), vehicle: Klucel (hydroxypropylcellulose) (HPC)
[18] = dose: 100.0 mg/kg/injection, schedule: Q04DX003 (ip), vehicle: Klucel (hydroxypropylcellulose) (HPC)
[19] = dose: 200.0 mg/kg/injection, schedule: Q04DX003 (ip), vehicle: Klucel (hydroxypropylcellulose) (HPC)
[20] = dose: 400.0 mg/kg/injection, schedule: Q04DX003 (ip), vehicle: Klucel (hydroxypropylcellulose) (HPC)

Measured: T/C

CC(=O)Oc1cc2c3c(c1)-c1c(ccc(OC(C)=O)c1OC(C)=O)CC3NCC2 (stereo unspecified)
inactive: dose: 3.13 mg/kg/injection, schedule: Q04DX003 (ip), vehicle: DMSO 93 % of control | dose: 6.25 mg/kg/injection, schedule: Q04DX003 (ip), vehicle: DMSO 93 % of control | dose: 12.5 mg/kg/injection, schedule: Q04DX003 (ip), vehicle: DMSO 93 % of control | dose: 25.0 mg/kg/injection, schedule: Q04DX003 (ip), vehicle: DMSO 98 % of control | dose: 50.0 mg/kg/injection, schedule: Q04DX003 (ip), vehicle: DMSO 87 % of control

Nc1nc(-c2cccnc2)nc2c1cnn2-c1ccccc1
inactive: dose: 100.0 mg/kg/injection, schedule: Q01DX001 (ip), vehicle: other 100 % of control | dose: 100.0 mg/kg/injection, schedule: Q04DX003 (ip), vehicle: other 97 % of control | dose: 200.0 mg/kg/injection, schedule: Q01DX001 (ip), vehicle: other 95 % of control | dose: 200.0 mg/kg/injection, schedule: Q04DX003 (ip), vehicle: other 104 % of control | dose: 400.0 mg/kg/injection, schedule: Q01DX001 (ip), vehicle: other 94 % of control | dose: 400.0 mg/kg/injection, schedule: Q04DX003 (ip), vehicle: other 109 % of control

Cc1c(Cl)cccc1NC(=O)Oc1cc(Cl)c(Cl)cc1Cl
inactive: [1] 92 % of control | [2] 96 % of control | [3] 95 % of control | [4] 106 % of control

COCCNCCOC
inactive: dose: 50.0 mg/kg/injection, schedule: Q04DX003 (ip), vehicle: saline 106 % of control | [5] 103 % of control | [6] 100 % of control | [7] 98 % of control | [8] 122 % of control | [9] 104 % of control | [10] 103 % of control

CCOC(=O)CCC(NC(=O)c1ccc(NCc2nnc3nc(N)nc(N)c3n2)cc1)C(=O)OCC (stereo unspecified)
inactive: dose: 25.0 mg/kg/injection, schedule: Q01DX001 (ip), vehicle: saline with Tween-80 100 % of control | dose: 50.0 mg/kg/injection, schedule: Q01DX001 (ip), vehicle: saline with Tween-80 95 % of control | dose: 100.0 mg/kg/injection, schedule: Q01DX001 (ip), vehicle: saline with Tween-80 107 % of control

COc1ccc(CCCNCCCCCCNCCCc2ccc(OC)cc2)cc1
inactive: dose: 25.0 mg/kg/injection, schedule: Q01DX009 (ip), vehicle: Klucel (hydroxypropylcellulose) (HPC) 104 % of control | dose: 50.0 mg/kg/injection, schedule: Q01DX009 (ip), vehicle: Klucel (hydroxypropylcellulose) (HPC) 93 % of control | dose: 50.0 mg/kg/injection, schedule: Q04DX002 (ip), vehicle: Klucel (hydroxypropylcellulose) (HPC) 96 % of control | [11] 86 % of control | dose: 100.0 mg/kg/injection, schedule: Q04DX002 (ip), vehicle: Klucel (hydroxypropylcellulose) (HPC) 96 % of control

COC(=O)CC(c1ccc2c(c1)OCO2)N1CCOCC1 (stereo unspecified)
inactive: dose: 100.0 mg/kg/injection, schedule: Q01DX001 (ip), vehicle: saline 119 % of control | dose: 200.0 mg/kg/injection, schedule: Q01DX001 (ip), vehicle: saline 113 % of control | dose: 400.0 mg/kg/injection, schedule: Q01DX001 (ip), vehicle: saline 104 % of control

O=C1Cc2ccccc2C(C(=O)O)O1 (stereo unspecified)
inactive: [12] 107 % of control | [13] 101 % of control | dose: 300.0 mg/kg/injection, schedule: Q01DX001 (ip), vehicle: saline 107 % of control

Nc1ccc2c(c1)Cc1c-2cc(I)c(O)c1I
inactive: [14] 98 % of control | [15] 101 % of control | [16] 101 % of control

O=C(NNc1ccccc1)c1ccc(Cl)cc1
inactive: dose: 100.0 mg/kg/injection, schedule: Q04DX002 (ip), vehicle: gum acacia 112 % of control | dose: 200.0 mg/kg/injection, schedule: Q04DX002 (ip), vehicle: gum acacia 87 % of control | dose: 400.0 mg/kg/injection, schedule: Q04DX002 (ip), vehicle: gum acacia 102 % of control

O=C(N/N=C/C(CC(O)C(O)CO)=N/NC(=O)c1ccc(Cl)cc1)c1ccc(Cl)cc1 (stereo unspecified)
inactive: [11] 109 % of control | [17] 97 % of control

COc1ccc(C=NC(C)(C)CO)c(OC)c1
inactive: [12] 96 % of control | [13] 101 % of control

Cc1cc(NCCN(C(C)C)C(C)C)nc(Nc2nc3ccc(Cl)cc3[nH]2)n1
inactive: dose: 12.5 mg/kg/injection, schedule: Q01DX009 (ip), vehicle: saline with Tween-80 98 % of control | [1] 91 % of control

N#C/C(=C\c1ccncc1)c1cccc2ccccc12
inactive: [18] 114 % of control | [19] 96 % of control | [20] 97 % of control

N#Cc1cc2ccccc2nc1N
inactive: [14] 98 % of control | [15] 93 % of control | [16] 98 % of control

Cc1cccc(OC(F)(F)C(F)Cl)c1 (stereo unspecified)
inactive: [2] 94 % of control | [3] 93 % of control | dose: 200.0 mg/kg/injection, schedule: Q01DX009 (ip), vehicle: saline with Tween-80 92 % of control | [4] 93 % of control | dose: 400.0 mg/kg/injection, schedule: Q01DX009 (ip), vehicle: saline with Tween-80 100 % of control | dose: 400.0 mg/kg/injection, schedule: Q04DX003 (ip), vehicle: saline with Tween-80 95 % of control

CN(CCO)C1CCCCCCC1
inactive: dose: 100.0 mg/kg/injection, schedule: Q01DX001 (ip), vehicle: acetone 100 % of control

O=NN(CC(=O)O)Cc1ccc(Cl)cc1
inactive: dose: 100.0 mg/kg/injection, schedule: Q01DX Z (ip), vehicle: saline 102 % of control | dose: 200.0 mg/kg/injection, schedule: Q01DX Z (ip), vehicle: saline 102 % of control

CC1(C)C=C(C(Br)c2cccc(Br)c2)C(=O)c2ccccc21 (stereo unspecified)
inactive: [11] 101 % of control | [18] 97 % of control | [17] 100 % of control | [19] 95 % of control | dose: 400.0 mg/kg/injection, schedule: Q01DX009 (ip), vehicle: Klucel (hydroxypropylcellulose) (HPC) 102 % of control | [20] 103 % of control

O=C1NC(=O)C(=Cc2ccc(N(CCCl)CCCl)cc2)C(=O)N1
inactive: dose: 100.0 mg/kg/injection, schedule: Q01DX Z (ip), vehicle: methylcellulose (MC) 102 % of control | dose: 200.0 mg/kg/injection, schedule: Q01DX Z (ip), vehicle: methylcellulose (MC) 121 % of control

CC12CCCCC1CC/C(=C\c1ccco1)C2=O (stereo unspecified)
inactive: [5] 98 % of control | [6] 97 % of control | [7] 98 % of control | [8] 100 % of control | [9] 95 % of control | [10] 100 % of control

Clc1ccc(N(c2ccccc2)c2ccccc2)cc1
inactive: [14] 115 % of control | [15] 100 % of control | [16] 108 % of control

N/C(=N/N=C/c1ccncc1)N/N=C\c1ccncc1
inactive: dose: 30.0 mg/kg/injection, schedule: Q01DX Z (ip), vehicle: carboxymethylcellulose (CMC) 89 % of control | dose: 30.0 mg/kg/injection, schedule: Q01DX Z (oral), vehicle: carboxymethylcellulose (CMC) 106 % of control | dose: 60.0 mg/kg/injection, schedule: Q01DX Z (ip), vehicle: carboxymethylcellulose (CMC) 87 % of control | dose: 60.0 mg/kg/injection, schedule: Q01DX Z (oral), vehicle: carboxymethylcellulose (CMC) 95 % of control | dose: 120.0 mg/kg/injection, schedule: Q01DX Z (ip), vehicle: carboxymethylcellulose (CMC) 92 % of control | dose: 120.0 mg/kg/injection, schedule: Q01DX Z (oral), vehicle: carboxymethylcellulose (CMC) 97 % of control and 123 % of control | dose: 240.0 mg/kg/injection, schedule: Q01DX Z (oral), vehicle: carboxymethylcellulose (CMC) 101 % of control and 104 % of control | dose: 480.0 mg/kg/injection, schedule: Q01DX Z (oral), vehicle: carboxymethylcellulose (CMC) 101 % of control

CC(C)[As](C)(=O)O
inactive: dose: 6.25 mg/kg/injection, schedule: Q04DX003 (ip), vehicle: Klucel (hydroxypropylcellulose) (HPC) 101 % of control | dose: 12.5 mg/kg/injection, schedule: Q04DX003 (ip), vehicle: Klucel (hydroxypropylcellulose) (HPC) 97 % of control | dose: 25.0 mg/kg/injection, schedule: Q04DX003 (ip), vehicle: Klucel (hydroxypropylcellulose) (HPC) 102 % of control and 103 % of control
